Measured values: patent US8163939B2, “Ascorbic acid derivative or salt thereof, production method thereof, and cosmetic” (Seikwa Kasei Company, Limited, priority 2007, dated 2012)

Columns and labels:
B16 melanoma 4A5 cell = assay: Whitening test: theophylline-induced melanine production in B16 melanoma 4A5 cells; format: cell-based, mouse; conditions: sample at a concentration of 100 μM or less; theophylline-induced melanine production; 3 days culture; N=4
Outline: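 Murine B16 4A5 cells were grown 24 h, then cultured 3 days in D-MEM with 10% FBS, 0.2 mM theophylline and sample. Melanin was dissolved in 2N NaOH at 60° C for 15 min, read at 450 nm against a synthetic-melanin standard and normalised to BCA protein. Suppression % = [1−(A−B)/(C−B)]×100 versus normal and control groups, with samples at ≤100 μM, N=4.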

[1] = Moisturizing test: moisturizing effect by water retention force; format: physicochemical; conditions: for moisturizing effect (in words): conclusion from Table 43, compared with ascorbic acid
Description: A sample shown later was dried, and the dried sample was spread in an amount of about 0.4 g (this weight is represented by W0) on the bottom of a weighing bottle (diameter: 3.6 cm, height excluding lid: 1.8 cm) so as to give uniform thickness. The sample contained in the weighing bottle was allowed to stand still in a constant humidity and constant temperature vessel (ENVIROS KCL-1000, TOKYO RIKAKIKAI CO, LTD) under environments of 25° C. and 65% RH. The weight was measured periodically, waiting until sufficient moisture absorption to attain equilibrium of weight increase (about 48 hours). Thereafter, the sample was transferred to under environments of 25° C. and 20% RH (in sealed vessel containing a saturated CH3COOK aqueous solution filled in the bottom part). From the weight after 24 hours (this weight is represented by W1), the amount of retained water per 1 g of the dried sample was calculated according to the following formula. (W1−W0)/W0
From the water amount thus calculated, the moisturizing effect was judged based on the following judging criterion, and the results are shown in Table 43.
Three compounds: 2,3-di-O-glyceryl ascorbic acid, 2,3-di-O-phenylglyceryl ascorbic acid, and glycerin, and
Six compounds: ascorbic acid, ascorbic acid glucoside, 2-O-glyceryl ascorbic acid, 3-O-glyceryl ascorbic acid, 3-O-butylglyceryl ascorbic acid and 3-O-octylglyceryl ascorbic acid, which were adjusted to pH7 with a dilute sodium hydroxide aqueous solution and concentrated.
◯: 25 mg or more and less than 40 mg
Δ: 10 mg or more and less than 25 mg

[2] = Stability Test 2: 2% aqueous solution, pH7, 50° C., 4 weeks (residual rate, odor, coloration); format: physicochemical
Description: (§1) Aqueous solutions (2%) of various test samples were adjusted to pH7 with a dilute sodium hydroxide aqueous solution, and charged into 50 mL screw tubes, and the tubes were sealed and stored at room temperature for 4 weeks. Thereafter, HPLC measurement were performed (using liquid chromatography manufactured by Tosoh Corp.) and the residual rate was obtained based on the peak area. The residual rate, odor(odor change) and degree of coloration were evaluated based on the following methods and standards, and the results are shown in Table 41.
The same test as in Test Example 2 was carried out excepting that the sample was stored at 50° C. for 4 weeks instead of storing at room temperature for 4 weeks.

[3] = Stability Test 1: 2% aqueous solution, pH7, room temperature, 4 weeks (residual rate, odor, coloration); format: physicochemical
Description: as §1
◯: 80% or more and less than 90%
Δ: 60% or more and less than 80%
X: 20% or more and less than 60%
It was evaluated according to the following criterion by 10 panelists.
Based on the evaluation results, classification was conducted as shown below.
◯: total point of 10 panelists is 25 or more
Δ: total point of 10 panelists is 16 to 24
X: total point of 10 panelists is 15 or less
3: almost no change as compared with that immediately after preparation
2: coloration is observed as compared with that immediately after preparation
1: intense coloration is observed as compared with that immediately after preparation

[4] = system: Normal human dermal fibroblasts; assay: Collagen production of human fibroblast 2 (100 μM or 500 μM; 2, 4 and 7 days); format: cell-based; conditions: for Collagen production amount in comparison with the control group (% value when the control group is 100%): Table 46, 100 μM or 500 μM (not stated which), average ± standard error, N=4; for collagen production promoting effect over time (in words): 100 μM or 500 μM, culturing 2, 4 and 7 days
Description: Normal human dermal fibroblasts were regulated with a 10% (v/v) fetal bovine serum (manufactured by Roshe Diagnostics)-containing D-MEM so as to give a cell density of 2.5×10^4 cells/well, then, pre-incubation for 24 hours was performed on a 96-well plate. After the medium was removed, a sample regulated with a 5% (v/v) fetal bovine serum-containing D-MEM to a concentration of 100 μM was added to each well, then, cultured for 48 hours under 37° C. and 5% CO2. After completion of culturing, the amount of free collagen was measured using Sircol collagen assay kit (manufactured by Biocolor). The measurement was carried out at N=4.
Free collagen was measured under the same conditions as in Test Example 5 excepting that the concentration of each sample was 100 μM or 500 μM and culturing was carried out for 2 days, 4 days and 7 days. The measurement was carried out at N=4, and the average and standard error, in four test examples, of values of the collagen production amount in comparison with the control group (% value when the control group is 100%) are shown in Tables 46 and 47.

[5] = system: Normal human dermal fibroblasts; assay: Collagen production of human fibroblast (Sircol collagen assay, 100 μM, 48 hours); format: cell-based; conditions: cultured 48 hours; for activity at 100 µM: Homo sapiens, Fibroblast, N=4, read-out: Collagen production promoting effect (collagen production amount, % of control group)
Outline: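 Dermal fibroblasts pre-cultured 24 h, then exposed 48 h to sample at 100 μM in 5% FBS D-MEM at 37 °C, 5% CO2. Free collagen measured by Sircol assay, N=4, expressed as % of untreated control.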

[6] = storage period 2 weeks, 10 panelists
[7] = storage period 4 weeks, 10 panelists

SMILES	Whitening effect (melanine production suppressing rate) (B16 melanoma 4A5 cell)	Residual rate ([2]; storage period 0)	Coloration ([2]; storage period 0, 10 panelists)	Odor ([2]; storage period 0, 10 panelists)	Residual rate ([2]; storage period 2 weeks)	Coloration [2, 6]	Odor [2, 6]	Residual rate ([2]; storage period 4 weeks)	Coloration [2, 7]	Odor [2, 7]	Residual rate ([3]; storage period 0)	Coloration ([3]; storage period 0, 10 panelists)	Odor ([3]; storage period 0, 10 panelists)	Residual rate ([3]; storage period 2 weeks)	Coloration [3, 6]	Odor [3, 6]	Residual rate ([3]; storage period 4 weeks)	Collagen production amount in comparison with the control group (% value when the control group is 100%) ([4]; culturing period 2 days) [%]	Collagen production amount in comparison with the control group (% value when the control group is 100%) ([4]; culturing period 4 days) [%]	Collagen production amount in comparison with the control group (% value when the control group is 100%) ([4]; culturing period 7 days) [%]	other results
O=C1O[C@H]([C@@H](O)CO)C(OCC(O)CO)=C1OCC(O)CO (some centres unmarked) [Example 4, 2,3-di-O-glyceryl ascorbic acid]	+ (20 to 40%:+)	⊚ (⊚: 90% or more)	◯ (◯: total point of 10 panelists is 25 or more)	◯ (◯: total point of 10 panelists is 25 or more)	⊚ (⊚: 90% or more)	◯ (◯: total point of 10 panelists is 25 or more)	◯ (◯: total point of 10 panelists is 25 or more)	⊚ (⊚: 90% or more)	◯ (◯: total point of 10 panelists is 25 or more)	◯ (◯: total point of 10 panelists is 25 or more)	⊚ (⊚: 90% or more)	◯ (◯: total point of 10 panelists is 25 or more)	◯ (◯: total point of 10 panelists is 25 or more)	⊚ (⊚: 90% or more)	◯ (◯: total point of 10 panelists is 25 or more)	◯ (◯: total point of 10 panelists is 25 or more)	⊚ (⊚: 90% or more)	161 ± 8	171 ± 7	209 ± 27	moisturizing effect (in words) [1]: excellent moisturizing effect by far than ascorbic acid; Coloration [3, 7]: ◯ (◯: total point of 10 panelists is 25 or more); Odor [3, 7]: ◯ (◯: total point of 10 panelists is 25 or more); activity at 100 µM [5]: 100 to 200%
O=C1O[C@H]([C@@H](O)CO)C(O)=C1O [ascorbic acid]	± (<20%:±)	◯ (◯: 80% or more and less than 90%)	◯ (◯: total point of 10 panelists is 25 or more)	◯ (◯: total point of 10 panelists is 25 or more)	X (X: 20% or more and less than 60%)	Δ (Δ: total point of 10 panelists is 16 to 24)	Δ (Δ: total point of 10 panelists is 16 to 24)	X (X: 20% or more and less than 60%)	X (X: total point of 10 panelists is 15 or less)	X (X: total point of 10 panelists is 15 or less)	⊚ (⊚: 90% or more)	◯ (◯: total point of 10 panelists is 25 or more)	◯ (◯: total point of 10 panelists is 25 or more)	◯ (◯: 80% or more and less than 90%)	Δ (Δ: total point of 10 panelists is 16 to 24)	Δ (Δ: total point of 10 panelists is 16 to 24)	X (X: 20% or more and less than 60%)	252 ± 12	182 ± 9	139 ± 14	Judgement of moisturizing effect (water amount) [1]: X (X: less than 10 mg); Coloration [3, 7]: X (X: total point of 10 panelists is 15 or less); Odor [3, 7]: X (X: total point of 10 panelists is 15 or less); collagen production promoting effect over time (in words) [4]: lowers over time; activity at 100 µM [5]: 100 to 200%
O=C1O[C@H]([C@@H](O)CO)C(O)=C1O[C@H]1O[C@H](CO)[C@@H](O)[C@H](O)[C@H]1O [ascorbic acid glucoside, reference compound]	+ (20 to 40%:+)																	193 ± 4	239 ± 2	179 ± 14	Judgement of moisturizing effect (water amount) [1]: ⊚ (⊚: 40 mg or more); collagen production promoting effect over time (in words) [4]: lowers over time; Collagen production promoting effect (collagen production amount, % of control group) ([5]; N=4): + (100 to 200%:+)
O=C1O[C@H]([C@@H](O)CO)C(O)=C1OCC(O)CO (some centres unmarked) [Example 3, 2-O-glyceryl ascorbic acid]	+ (20 to 40%:+)	⊚ (⊚: 90% or more)	◯ (◯: total point of 10 panelists is 25 or more)	◯ (◯: total point of 10 panelists is 25 or more)	⊚ (⊚: 90% or more)	◯ (◯: total point of 10 panelists is 25 or more)	◯ (◯: total point of 10 panelists is 25 or more)	⊚ (⊚: 90% or more)	◯ (◯: total point of 10 panelists is 25 or more)	◯ (◯: total point of 10 panelists is 25 or more)	⊚ (⊚: 90% or more)	◯ (◯: total point of 10 panelists is 25 or more)	◯ (◯: total point of 10 panelists is 25 or more)	⊚ (⊚: 90% or more)	◯ (◯: total point of 10 panelists is 25 or more)	◯ (◯: total point of 10 panelists is 25 or more)	⊚ (⊚: 90% or more)	226 ± 10	193 ± 6	258 ± 22	moisturizing effect (in words) [1]: excellent moisturizing effect by far than ascorbic acid; Coloration [3, 7]: ◯ (◯: total point of 10 panelists is 25 or more); Odor [3, 7]: ◯ (◯: total point of 10 panelists is 25 or more); activity at 100 µM [5]: 100 to 200%
